From patent US10738275B2, “Paenibacillus sp. strain, cultivation method and use of the same” (BRIGHT DAIRY & FOOD CO., LTD, priority 2016, dated 2020)

Key:
[1] = system: human intestinal flora; experiment: in-vitro culture of adult fecal flora, PCR-DGGE of V3 area for total bacteria; format: cell-based; settings: 0.4% added, faeces of healthy adults, anaerobic, 24 hours, 37° C.
Procedure: (1) The faeces of 30 healthy adults (male or female, with the age range from 23 to 25, excluding those who have intestinal diseases or taking antibiotic drugs recently). They are dissolved in pH7.3-phosphate buffer (8 g/L-NaCl, 0.2 g/L-KCl, 1.15 g/L-NaHPO4, and 0.2 g/L-KH2PO4) and mixed uniformly. It is added into the culture system at a volume ratio of 1:10. Then, 0.4% of the purified extracellular polysaccharide (BD3526EPS for short) obtained in Embodiment 11 and 0.4% of the commercialized fructooligosaccharide (FOS for short) are added into the culture system respectively. Meanwhile, the blank control is arranged. They are anaerobically cultured for 24 hours under 37° C. The percentages refer to the mass-volume percentages of the culture system.
(2) Once the culture is completed, the phenol-chloroform method (ERCOLINI D, HILL P J, DODD C E. Bacterial community structure and location in Stilton cheese. Applied and environmental microbiology, 2003, 69(6): 3540-8.) is used to extract the DNA of the cultures and fecal flora. […]

[2] = system: All bacteria; experiment: in-vitro culture of infant fecal flora, PCR-intestinal microarray detection; format: cell-based, infants' fecal flora; settings: 0.4% (w/v) added, infant fecal flora in SIEM, anaerobic, 8 hours, 37° C.; blank control defined as 0
Procedure: (§1) The standard culture solution of fecal flora is prepared in accordance with the method of Minekus et al (Models of the gastrointestinal tract to study microbial interactions Original Research Article Biology of Growing Animals, 2005, 2:142-154).
(2) Certain amount of standard ileum efflux culture medium (SIEM, with 0.047 g/L pectin, 0.047 g/L xyloglucan, 0.047 g/L arabinogalactan, 0.047 g/L amylose, 0.392 g/L starch, 24.0 g/L casein, 17.0 g/L Tween 80, 24.0 g/L bacto peptone, 0.4 g/L oxgall, and 0.2 g/L cysteine) is added into a 96-well microtitration plate. Then, the 0.1% of the standard culture solution of fecal flora is added. The percentage refers to the volume percentage of the standard ileum efflux culture medium. Then, 0.4% of the purified extracellular polysaccharide (“BD3526 extracellular polysaccharide” for short) obtained in Example 11 and 0.4% of the commercialized fructooligosaccharide (FOS for short) are added into different wells among the 96 wells respectively. The final volume of liquid in each well is 1.5 mL. Meanwhile, the blank control is arranged. They are anaerobically cultured for 8 hours under 37° C. The percentage refers to the mass-volume percentage of the final volume of the liquid in a well of the 96-well microtitration plate. […]

[3] = system: B. Longum; experiment: as above; format: cell-based; settings: 0.4% (w/v) added, infant fecal flora in SIEM, anaerobic, 8 hours, 37° C.; blank control defined as 0
Procedure: as §1
(§2) (2) Certain amount of standard ileum efflux culture medium (SIEM, with 0.047 g/L pectin, 0.047 g/L xyloglucan, 0.047 g/L arabinogalactan, 0.047 g/L amylose, 0.392 g/L starch, 24.0 g/L casein, 17.0 g/L Tween 80, 24.0 g/L bacto peptone, 0.4 g/L oxgall, and 0.2 g/L cysteine) is added into a 96-well microtitration plate. Then, the 0.1% of the standard culture solution of fecal flora is added. The percentage refers to the volume percentage of the standard ileum efflux culture medium. Then, 0.4% of the purified extracellular polysaccharide (“BD3526 extracellular polysaccharide” for short) obtained in Example 11 and 0.4% of the commercialized fructooligosaccharide (FOS for short) are added into different wells among the 96 wells respectively. The final volume of liquid in each well is 1.5 mL. Meanwhile, the blank control is arranged. They are anaerobically cultured for 8 hours under 37° C. The percentage refers to the mass-volume percentage of the final volume of the liquid in a well of the 96-well microtitration plate.
(§3) (3) Once the cultivation is completed, the fermentation broth is mixed with 250 μL of lysis buffer, […], of zirconium bead liquid (0.1 mm) and 200 μL of phenol solution. Then they are homogenized on the bead beater (BIO SPEC Inc. U.S.) for twice (2 minutes for each time). The DNA is extracted with DNA Kit (TIANGEN BIOTECH CO., LTD). Then, PCR-intestinal microarray detection method (SALAZAR N, GUEIMONDE M, HERNANDEZ-BARRANCO A M, et al. Exopolysaccharides produced by intestinal Bifidobacterium strains act as fermentable substrates for human intestinal bacteria. Applied and environmental microbiology, 2008, 74(15): 4737-45.) is used to analyze the number of floras in samples with respect to that of the blank control (standard solution of fecal flora cultured without adding polysaccharide).

[4] = system: B. infantis; experiment: as above; format: cell-based; settings: 0.4% (w/v) added, infant fecal flora in SIEM, anaerobic, 8 hours, 37° C.; blank control defined as 0
Procedure: as §1, §2, §3

[5] = system: B. breve; experiment: as above; format: cell-based; settings: 0.4% (w/v) added, infant fecal flora in SIEM, anaerobic, 8 hours, 37° C.; blank control defined as 0
Procedure: as §1, §2, §3

[6] = system: All bifidobacteria; experiment: as above; format: cell-based, bifidobacteria in infants' fecal flora; settings: 0.4% (w/v) added, 8 hours, 37° C.; for The increased log (ORF/mL) value of the flora in samples with respect to the blank control, All bifidobacteria: infant fecal flora in SIEM, anaerobic, blank control defined as 0
Procedure: as §1, §2, §3

Substance | brightness of PCR-DGGE stripes (FIG. 12), proliferation of bacteria in human intestinal flora, in words [1] | The increased log (ORF/mL) value of the flora in samples with respect to the blank control, All bacteria [2] | The increased log (ORF/mL) value of the flora in samples with respect to the blank control, B. Longum [3] | The increased log (ORF/mL) value of the flora in samples with respect to the blank control, B. infantis [4] | The increased log (ORF/mL) value of the flora in samples with respect to the blank control, B. breve [5] | proliferation of the bifidobacteria in infants' fecal flora compared with the blank control group (FIG. 11), in words [6] | The increased log (ORF/mL) value of the flora in samples with respect to the blank control, All bifidobacteria [6]
levan [BD3526 extracellular polysaccharide] | significantly brighter than those of the FOS group and the blank control group | 0.448 log (ORF/mL) | 0.36 log (ORF/mL) | 0.017 log (ORF/mL) | 0.81 log (ORF/mL) | can also promote the proliferation of the bifidobacteria in infants' fecal flora | 0.74 log (ORF/mL)
fructooligosaccharide [FOS, reference compound] |  | 0.12 log (ORF/mL) | 0.37 log (ORF/mL) | −0.121 log (ORF/mL) | 1.18 log (ORF/mL) |  | 1.07 log (ORF/mL)
